Measured values published in BindingDB's records for doi:10.1124/jpet.104.081539 (Kyowa Hakko Kogyo, 2005).

Legend:
[1] = molecular target: Platelet-activating factor receptor (Homo sapiens, UniProt P25105)
[2] = molecular target: T1, Prostaglandin G/H synthase 2 (Homo sapiens, UniProt P35354)
T1 sequence (P35354 whole entry): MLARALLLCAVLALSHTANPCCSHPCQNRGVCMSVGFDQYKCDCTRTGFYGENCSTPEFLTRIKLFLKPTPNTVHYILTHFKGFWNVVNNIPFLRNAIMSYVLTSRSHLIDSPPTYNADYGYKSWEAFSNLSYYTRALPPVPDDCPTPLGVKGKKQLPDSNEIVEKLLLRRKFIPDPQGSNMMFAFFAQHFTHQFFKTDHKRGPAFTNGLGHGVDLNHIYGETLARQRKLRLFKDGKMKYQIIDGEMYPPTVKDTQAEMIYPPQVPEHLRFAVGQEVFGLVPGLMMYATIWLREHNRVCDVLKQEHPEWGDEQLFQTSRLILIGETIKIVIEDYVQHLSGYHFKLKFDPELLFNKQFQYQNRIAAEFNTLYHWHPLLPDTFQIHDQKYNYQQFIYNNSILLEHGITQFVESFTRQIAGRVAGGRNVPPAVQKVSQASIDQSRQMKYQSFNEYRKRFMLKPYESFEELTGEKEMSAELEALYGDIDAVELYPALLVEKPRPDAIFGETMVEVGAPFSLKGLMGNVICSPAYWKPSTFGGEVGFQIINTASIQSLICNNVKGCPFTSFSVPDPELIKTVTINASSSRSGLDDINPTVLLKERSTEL

[3] = molecular target: Leukotriene B4 receptor 1 (Homo sapiens) (UniProt Q15722)
Histamine H2 receptor = Histamine H2 receptor (Homo sapiens, UniProt P25021)
D(1A) dopamine receptor = D(1A) dopamine receptor (Homo sapiens, UniProt P21728)
[4] = molecular target: T2, Cysteinyl leukotriene receptor 1 (Homo sapiens, UniProt Q9Y271)
T2 sequence (Q9Y271 whole entry): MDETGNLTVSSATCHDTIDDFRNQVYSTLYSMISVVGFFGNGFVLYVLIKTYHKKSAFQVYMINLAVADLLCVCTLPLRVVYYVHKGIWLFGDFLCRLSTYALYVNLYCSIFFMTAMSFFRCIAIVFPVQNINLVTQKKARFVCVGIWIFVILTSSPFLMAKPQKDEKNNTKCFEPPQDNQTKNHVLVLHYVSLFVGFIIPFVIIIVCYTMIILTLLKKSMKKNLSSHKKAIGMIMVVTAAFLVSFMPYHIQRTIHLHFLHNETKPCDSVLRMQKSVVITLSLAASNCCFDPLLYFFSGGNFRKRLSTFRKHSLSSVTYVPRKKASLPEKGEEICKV

[5] = molecular target: T3, Alpha-1A adrenergic receptor (Rattus norvegicus, UniProt P43140)
T3 sequence (P43140 whole entry): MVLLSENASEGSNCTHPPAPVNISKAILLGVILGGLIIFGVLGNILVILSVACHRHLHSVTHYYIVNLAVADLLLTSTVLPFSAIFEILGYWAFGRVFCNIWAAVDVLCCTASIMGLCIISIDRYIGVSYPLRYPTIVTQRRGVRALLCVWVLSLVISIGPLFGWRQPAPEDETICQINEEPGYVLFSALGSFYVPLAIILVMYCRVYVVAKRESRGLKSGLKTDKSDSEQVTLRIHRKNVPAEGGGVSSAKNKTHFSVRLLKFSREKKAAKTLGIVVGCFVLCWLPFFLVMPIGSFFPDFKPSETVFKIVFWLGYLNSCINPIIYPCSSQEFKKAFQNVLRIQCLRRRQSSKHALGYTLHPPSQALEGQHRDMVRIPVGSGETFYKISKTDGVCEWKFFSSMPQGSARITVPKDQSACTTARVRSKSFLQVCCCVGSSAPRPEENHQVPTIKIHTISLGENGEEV

[6] = molecular target: T4, Alpha-2A adrenergic receptor [16-465] (Rattus norvegicus, UniProt P22909)
T4 construct: 16-465
T4 sequence (P22909 whole entry): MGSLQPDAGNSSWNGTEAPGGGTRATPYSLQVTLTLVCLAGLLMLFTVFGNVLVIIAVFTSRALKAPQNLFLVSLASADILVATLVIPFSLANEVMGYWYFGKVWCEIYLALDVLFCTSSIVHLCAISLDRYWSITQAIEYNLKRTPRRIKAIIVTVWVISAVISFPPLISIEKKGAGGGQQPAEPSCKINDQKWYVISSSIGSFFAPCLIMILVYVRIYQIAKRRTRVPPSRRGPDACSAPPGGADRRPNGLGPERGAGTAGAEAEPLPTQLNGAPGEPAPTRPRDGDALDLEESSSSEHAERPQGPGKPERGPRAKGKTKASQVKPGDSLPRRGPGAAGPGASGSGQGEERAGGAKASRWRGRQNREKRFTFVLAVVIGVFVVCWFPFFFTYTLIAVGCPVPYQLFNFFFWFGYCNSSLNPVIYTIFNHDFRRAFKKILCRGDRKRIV

D(2) dopamine receptor = D(2) dopamine receptor (Homo sapiens, UniProt P14416)
[7] = molecular target: Prostaglandin G/H synthase 1 (Homo sapiens, UniProt P23219)
[8] = molecular target: T5, 5-hydroxytryptamine receptor 1A (Homo sapiens, UniProt P08908)
T5 sequence (P08908 whole entry): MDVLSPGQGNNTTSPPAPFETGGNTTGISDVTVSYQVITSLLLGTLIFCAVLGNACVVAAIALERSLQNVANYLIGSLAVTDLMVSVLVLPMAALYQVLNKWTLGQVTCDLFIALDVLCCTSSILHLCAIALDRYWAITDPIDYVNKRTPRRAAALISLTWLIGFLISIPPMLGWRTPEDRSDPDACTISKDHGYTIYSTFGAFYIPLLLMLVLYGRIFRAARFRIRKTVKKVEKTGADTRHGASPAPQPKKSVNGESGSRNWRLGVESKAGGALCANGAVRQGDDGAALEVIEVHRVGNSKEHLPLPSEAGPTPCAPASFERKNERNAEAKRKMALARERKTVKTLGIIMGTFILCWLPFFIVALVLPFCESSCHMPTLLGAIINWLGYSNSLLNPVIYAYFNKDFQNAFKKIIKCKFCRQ

Measured: Ki

Histamine H2 receptor, sequence (P25021 whole entry): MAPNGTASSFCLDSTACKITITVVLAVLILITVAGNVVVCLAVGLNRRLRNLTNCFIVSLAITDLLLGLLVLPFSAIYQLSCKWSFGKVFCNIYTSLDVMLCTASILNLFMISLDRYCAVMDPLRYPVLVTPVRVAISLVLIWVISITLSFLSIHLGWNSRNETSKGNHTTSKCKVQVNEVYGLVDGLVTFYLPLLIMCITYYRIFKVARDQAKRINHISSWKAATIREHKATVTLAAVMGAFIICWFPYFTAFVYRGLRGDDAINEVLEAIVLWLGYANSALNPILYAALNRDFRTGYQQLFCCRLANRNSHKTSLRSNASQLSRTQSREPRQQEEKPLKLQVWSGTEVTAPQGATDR
Leukotriene B4 receptor 1 (Homo sapiens), sequence (Q15722 whole entry, looked up): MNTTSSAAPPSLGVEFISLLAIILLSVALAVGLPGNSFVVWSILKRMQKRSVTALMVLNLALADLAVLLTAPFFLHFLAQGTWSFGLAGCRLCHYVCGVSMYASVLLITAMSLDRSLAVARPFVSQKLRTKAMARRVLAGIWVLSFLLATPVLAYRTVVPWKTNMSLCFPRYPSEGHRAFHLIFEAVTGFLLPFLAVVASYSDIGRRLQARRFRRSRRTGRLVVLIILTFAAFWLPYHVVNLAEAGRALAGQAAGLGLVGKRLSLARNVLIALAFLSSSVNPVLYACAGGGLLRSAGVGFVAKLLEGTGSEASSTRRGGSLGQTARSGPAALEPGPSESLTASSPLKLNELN
Platelet-activating factor receptor, sequence (P25105 whole entry): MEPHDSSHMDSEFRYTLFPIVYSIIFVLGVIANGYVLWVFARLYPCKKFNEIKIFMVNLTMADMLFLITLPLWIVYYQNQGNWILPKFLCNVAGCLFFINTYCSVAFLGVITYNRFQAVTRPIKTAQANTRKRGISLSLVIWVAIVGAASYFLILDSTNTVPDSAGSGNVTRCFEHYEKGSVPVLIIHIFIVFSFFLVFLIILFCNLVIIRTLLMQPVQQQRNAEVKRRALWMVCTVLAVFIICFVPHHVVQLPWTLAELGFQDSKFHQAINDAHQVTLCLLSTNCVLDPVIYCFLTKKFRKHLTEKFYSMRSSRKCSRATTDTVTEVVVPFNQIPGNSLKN
D(2) dopamine receptor, sequence (P14416 whole entry): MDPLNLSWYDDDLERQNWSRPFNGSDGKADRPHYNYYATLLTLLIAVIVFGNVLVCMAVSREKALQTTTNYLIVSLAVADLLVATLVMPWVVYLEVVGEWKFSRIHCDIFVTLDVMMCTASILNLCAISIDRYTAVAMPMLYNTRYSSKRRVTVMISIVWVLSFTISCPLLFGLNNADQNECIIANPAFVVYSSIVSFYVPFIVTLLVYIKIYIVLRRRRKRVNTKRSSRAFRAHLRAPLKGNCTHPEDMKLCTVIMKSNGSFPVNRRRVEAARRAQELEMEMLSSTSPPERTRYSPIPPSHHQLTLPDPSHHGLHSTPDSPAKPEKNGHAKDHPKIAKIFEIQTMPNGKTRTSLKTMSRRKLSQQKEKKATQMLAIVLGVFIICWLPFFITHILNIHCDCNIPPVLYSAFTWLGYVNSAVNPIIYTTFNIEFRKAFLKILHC
D(1A) dopamine receptor, sequence (P21728 whole entry): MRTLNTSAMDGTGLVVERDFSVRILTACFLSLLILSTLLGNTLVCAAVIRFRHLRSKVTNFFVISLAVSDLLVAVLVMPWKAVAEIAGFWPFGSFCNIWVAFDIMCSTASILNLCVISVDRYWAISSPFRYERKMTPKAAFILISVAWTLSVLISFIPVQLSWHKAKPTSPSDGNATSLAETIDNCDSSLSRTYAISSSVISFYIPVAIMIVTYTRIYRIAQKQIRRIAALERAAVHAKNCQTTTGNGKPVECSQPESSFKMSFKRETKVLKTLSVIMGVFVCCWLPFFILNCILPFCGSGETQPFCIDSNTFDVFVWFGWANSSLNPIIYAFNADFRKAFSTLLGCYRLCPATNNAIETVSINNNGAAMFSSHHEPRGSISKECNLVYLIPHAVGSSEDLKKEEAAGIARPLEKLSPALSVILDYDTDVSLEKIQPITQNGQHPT
Prostaglandin G/H synthase 1, sequence (P23219 whole entry): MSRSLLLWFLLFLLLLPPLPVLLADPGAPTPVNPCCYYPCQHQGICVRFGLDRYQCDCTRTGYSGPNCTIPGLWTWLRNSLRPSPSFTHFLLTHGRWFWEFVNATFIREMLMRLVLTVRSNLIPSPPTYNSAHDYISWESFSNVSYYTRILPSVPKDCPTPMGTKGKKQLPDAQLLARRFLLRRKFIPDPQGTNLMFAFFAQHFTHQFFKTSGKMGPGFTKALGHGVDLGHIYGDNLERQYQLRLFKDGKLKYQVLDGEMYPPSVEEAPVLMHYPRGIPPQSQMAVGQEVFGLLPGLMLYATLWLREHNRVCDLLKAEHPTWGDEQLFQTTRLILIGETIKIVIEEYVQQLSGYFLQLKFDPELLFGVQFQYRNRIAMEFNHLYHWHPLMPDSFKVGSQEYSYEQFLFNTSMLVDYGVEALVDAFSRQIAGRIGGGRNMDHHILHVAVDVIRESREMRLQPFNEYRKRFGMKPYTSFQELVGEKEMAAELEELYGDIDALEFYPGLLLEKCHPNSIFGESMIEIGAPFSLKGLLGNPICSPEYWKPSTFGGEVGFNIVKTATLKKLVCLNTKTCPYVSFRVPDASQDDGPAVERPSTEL

CC(C)C(=O)N(c1ccccc1)C1CC(C)N(C(=O)c2ccccc2)c2ccccc21 (configuration not stated) [K117]
> 1 µM: [1] | [2] | [3] | Histamine H2 receptor | D(1A) dopamine receptor | [4] | [5] | [6] | D(2) dopamine receptor | [7]

CCC(=O)N1c2ccccc2C(N(C(C)=O)c2ccccc2)CC1C (configuration not stated) [K376]
> 1 µM: [1] | [2] | [3] | Histamine H2 receptor | D(1A) dopamine receptor | [4] | [8] | [5] | [6] | D(2) dopamine receptor | [7]

CC1CC(N(C(=O)C2CC2)c2ccccc2)c2ccccc2N1C(=O)c1ccccc1 (configuration not stated) [K604]
> 1 µM: [1] | [2] | [3] | Histamine H2 receptor | D(1A) dopamine receptor | [4] | [8] | [5] | [6] | D(2) dopamine receptor | [7]
